Marks after values point to notes of the source that are not given here.
Experiments:
[1] = tested on: finishing steers; assay: Feedlot growth performance study: component feeding vs continuous feeding of Zilmax; type: in vivo, cattle; conditions: for Final body weight: 20 days, LS mean
From the text: A multi-center, randomized complete block design was used. Four study sites enrolled 800 to 1000 head of cattle each. Cattle were randomized to 10 blocks of 80 to 100 head based on body weight, then penned in groups of 16 to 20 head per pen. Finishing steers that were visually estimated to be approximately 58 days from finish were used in the studies. Each site enrolled 800 to 1000 head of cattle. Cattle were randomized to 10 blocks of 80 to 100 head and, within block, to treatment group based on body weight. Study pens consisted of 16 to 20 head per pen. The study was broken into three periods: acclimation, Zilmax® treatment and withdrawal. Between study sites, the number of acclimation days was variable but the Zilmax feeding period was 20 days at all study sites. The withdrawal period ranged from 3 to 5 days across the sites. More than one start time was allowed to accommodate enrollment of the study animals. If blocks were initiated at different times, blocks may have been acclimated for different lengths of time. The minimum length of the acclimation period was 31 days. All animals were permitted ad libitum feed consumption according to standard study site procedure. Feed delivery occurred twice daily. Daily feed issue was recorded on a per pen basis from the start of the acclimation period and until final weights were measured before shipment for harvest. Feed batching and delivery were documented. A component feeding method was tested in the studies by thoroughly mixing the daily zilpaterol dose in the first feeding of the Type C feed prior to delivery to the animal for Groups 2, 3 and 4. […] The daily component feed amount (i.e., the first feeding each day of the Type C feed) was set at approximately 10 lb of feed dry matter (DM) per head to simulate commercial practice for component feeding. Therefore, all study pens were fed approximately 10 lb of DM per head in the first feeding of the day. Control steers were fed the Type C feed that contained no Zilmax. The component feeding treatment groups were fed the Type C feed that contained 60, 75, or 90 mg/head/day. All cattle in the control and three component feeding treatments were fed the non-medicated Type C complete feed (i.e., without Zilmax®) in a second feeding each day. Steers in the 6.8 g/ton Zilmax® treatment group received the Type C complete feed containing this level of Zilmax® in both feedings each day during the 20-day Zilmax® feeding period. Individual animal weights were measured prior to the start of the Acclimation period for use in randomization of animals to treatment groups and pens. The Acclimation period was used to stabilize feed intake and behavioral aspects of the newly sorted pen groups of cattle prior to feeding Zilmax®. Individual weights were measured and unconsumed feed was removed from the feed bunks and weighed on the day of initiation of Zilmax® feeding. After a 20-day Zilmax® feeding period, unconsumed feed was removed from the feed bunks, weighed, and discarded. All animals in the five treatment groups were fed a non-medicated feed (i.e., without Zilmax®) for a minimum 3 day withdrawal period prior to harvest. Unconsumed feed remaining in the feed bunks was removed and weighed on the day of final body weight measurement. Cattle were handled throughout the study using procedures which were typical of commercial practices. Cattle were exposed to ambient weather conditions during the studies. Feed was not restricted prior to weighing or harvest. The primary variables in this study were average daily body weight gain (ADG) and feed efficiency (FE) calculated for the Zilmax® feeding period of the study (Day 0 through end of withdrawal period) and for the entire study (start of the acclimation period to end of withdrawal period). ADG was calculated as a pen average from the ADG of individual animals within the pen using the equation: ADG=(final body weight−Day 0 body weight)/(number of days between the body weight measurements). […]

[2] = tested on: finishing steers; assay: Secondary (carcass) variables after Zilmax component or continuous feeding; type: in vivo, cattle; conditions: for Marbling Score: 400-699 = choice
From the text: A multi-center, randomized complete block design was used. Four study sites enrolled 800 to 1000 head of cattle each. Cattle were randomized to 10 blocks of 80 to 100 head based on body weight, then penned in groups of 16 to 20 head per pen. Finishing steers that were visually estimated to be approximately 58 days from finish were used in the studies. Each site enrolled 800 to 1000 head of cattle. Cattle were randomized to 10 blocks of 80 to 100 head and, within block, to treatment group based on body weight. Study pens consisted of 16 to 20 head per pen. A component feeding method was tested in the studies by thoroughly mixing the daily zilpaterol dose in the first feeding of the Type C feed prior to delivery to the animal for Groups 2, 3 and 4. […] The daily component feed amount (i.e., the first feeding each day of the Type C feed) was set at approximately 10 lb of feed dry matter (DM) per head to simulate commercial practice for component feeding. Therefore, all study pens were fed approximately 10 lb of DM per head in the first feeding of the day. Control steers were fed the Type C feed that contained no Zilmax. The component feeding treatment groups were fed the Type C feed that contained 60, 75, or 90 mg/head/day. All cattle in the control and three component feeding treatments were fed the non-medicated Type C complete feed (i.e., without Zilmax®) in a second feeding each day. Steers in the 6.8 g/ton Zilmax® treatment group received the Type C complete feed containing this level of Zilmax® in both feedings each day during the 20-day Zilmax® feeding period. DMI was calculated for the two study periods (start of the acclimation period or Day 0 to the end of the withdrawal period). The following carcass data were collected or calculated: marbling score, USDA quality grade or equivalent, hot carcass weight, ribeye area, backfat thickness (preliminary yield grade and adjusted preliminary yield grade), and USDA yield grade or equivalent. Dressing percent was calculated. Variables continuous in nature were subjected to the analysis described for the primary outcome variables. Outcomes evaluated included: initial body weight, final body weight, weight gain (Day 0 to final date), ADG (acclimation period, initial date to final date), ADG (shrunk, Day 0 to final date and initial date to final date), DMI (acclimation, initial date to final date), as fed intake (Zilmax® period), carcass gain (Day 0 to final date), dressing percent, hot carcass weight, marbling score, fat depth, ribeye area, percent KPH and calculated yield grade. The following carcass data were collected or calculated: marbling score, USDA quality grade or equivalent, hot carcass weight, ribeye area, backfat thickness, calculated yield grade, kidney-pelvic-heart fat percentage, and USDA yield grade or equivalent. The Canadian study site CBGA quality and yield grades were converted to USDA equivalents prior to analysis. Dressing percent was calculated.

[3] = Acclimation to End of Withdrawal (entire study)
[4] = Entire Study (55 to 82 days), component feeding 60 mg/hd/day
[5] = Entire Study (55 to 82 days), component feeding 75 mg/hd/day
[6] = Entire Study (55 to 82 days), component feeding 90 mg/hd/day
[7] = Entire Study (55 to 82 days), continuous 6.8 g/ton
[8] = Zilmax and Withdrawal Period, all treated groups
[9] = Zilmax and Withdrawal Periods (23 to 25 days), component feeding 60 mg/hd/day
[10] = Zilmax and Withdrawal Periods (23 to 25 days), component feeding 75 mg/hd/day
[11] = Zilmax and Withdrawal Periods (23 to 25 days), component feeding 90 mg/hd/day
[12] = Zilmax and Withdrawal Periods (23 to 25 days), continuous 6.8 g/ton

`CC(C)NC1CCn2c(=O)[nH]c3cccc(c32)C1O` (centres unmarked) [Zilmax, 4,5,6,7-tetrahydro-7-hydroxy-6-(isopropylamino) imidazo[4,5,1-jk]-[1]benzazepin-2(1H)-one] was tested, and the “ADG, component feeding groups vs continuous feeding group” value [1, 3] was “No differences”, the “ADG, treated groups compared to the control group” value [1, 3] was “significantly higher” and the “FE, component feeding groups vs continuous feeding group” value [1, 3] was “No differences”. For the same compound, the “FE, treated groups compared to the control group” value [1, 3] was “significantly lower”, the “DMI, among the treatment groups” value ([1]; Acclimation to End of Withdrawal (entire study), P>0.51) was “No differences” and the ADG [1, 4] was 4.14* lb/head/day. For the same compound, the DMI [1, 4] was 22.71 lb/head/day, the “FE (Feed / Gain)” value [1, 4] was 5.64* and the ADG [1, 5] was 4.12* lb/head/day. The DMI [1, 5] was 22.75 lb/head/day, the “FE (Feed / Gain)” value [1, 5] was 5.65* and the ADG [1, 6] was 4.13* lb/head/day. For the same compound, the DMI [1, 6] was 22.65 lb/head/day, the “FE (Feed / Gain)” value [1, 6] was 5.62* and the ADG [1, 7] was 4.19* lb/head/day. For the same compound, the DMI [1, 7] was 22.93 lb/head/day, the “FE (Feed / Gain)” value [1, 7] was 5.64* and the “ADG, component feeding groups vs continuous feeding group” value ([1]; Zilmax and Withdrawal Period) was “No differences”. The “DMI, component feeding groups compared to the control group” value ([1]; Zilmax and Withdrawal Period) was “significantly lower”, the “DMI, continuous feeding group vs control group” value ([1]; Zilmax and Withdrawal Period) was “no significant difference” and the “FE, component feeding groups vs continuous feeding group” value ([1]; Zilmax and Withdrawal Period) was “No differences”. The “ADG, treated groups compared to the control group” value [1, 8] was “significantly higher”, the “FE, treated groups compared to the control group” value [1, 8] was “significantly lower” and the ADG [1, 9] was 4.13*^(c) lb/head/day. For the same compound, the DMI [1, 9] was 22.57* lb/head/day, the “FE (Feed / Gain)” value [1, 9] was 5.89* and the ADG [1, 10] was 3.99* lb/head/day. For the same compound, the DMI [1, 10] was 22.70* lb/head/day, the “FE (Feed / Gain)” value [1, 10] was 5.99* and the ADG [1, 11] was 3.97* lb/head/day. The DMI [1, 11] was 22.39* lb/head/day, the “FE (Feed / Gain)” value [1, 11] was 6.10* and the ADG [1, 12] was 4.23* lb/head/day. The DMI [1, 12] was 22.87 lb/head/day, the “FE (Feed / Gain)” value [1, 12] was 5.96* and the Final body weight ([1]; component feeding 60 mg/hd/day) was 1463 lb/head. It also gave a Final body weight ([1]; component feeding 75 mg/hd/day) of 1459 lb/head, a Final body weight ([1]; component feeding 90 mg/hd/day) of 1461 lb/head and a Final body weight ([1]; fed continuously 6.8 g/ton (90% DMB)) of 1467 lb/head. The “Backfat thickness, among the treatment groups” value ([2]; P>0.19) was “no significant differences”, the “Kidney-pelvic-heart fat percentage, among the treatment groups” value ([2]; P>0.19) was “no significant differences” and the “USDA quality grade, among the treatment groups” value ([2]; P>0.19) was “no significant differences”. The “Calculated yield grade, Zilmax treated groups compared to the control group” value ([2]; all treated groups) was “significantly lower”, the “Dressing percentage, Zilmax treated groups compared to the control group” value ([2]; all treated groups) was “significantly higher” and the “Hot carcass weight, Zilmax treated groups compared to the control group” value ([2]; all treated groups) was “significantly higher”. The “Marbling score, Zilmax treated groups compared to the control group” value ([2]; all treated groups) was “significantly lower”, the “Rib eye area, Zilmax treated groups compared to the control group” value ([2]; all treated groups) was “significantly higher” and the “USDA yield grade score, Zilmax treated groups compared to the control group” value ([2]; all treated groups) was “significantly lower”. The “Calculated yield grade, component feeding groups vs continuous feeding group” value ([2]; bovine, in vivo) was “no differences”, the “Dressing percentage, component feeding groups vs continuous feeding group” value ([2]; bovine, in vivo) was “no differences” and the “Hot carcass weight, component feeding groups vs continuous feeding group” value ([2]; bovine, in vivo) was “no differences”. For the same compound, the “Marbling score, component feeding groups vs continuous feeding group” value ([2]; bovine, in vivo) was “no differences”, the “Rib eye area, component feeding groups vs continuous feeding group” value ([2]; bovine, in vivo) was “no differences” and the “USDA yield grade score, component feeding groups vs continuous feeding group” value ([2]; bovine, in vivo) was “no differences”. For the same compound, the “Backfat Thickness” value ([2]; component feeding 60 mg/hd/day) was 0.49 inches, the “Calculated Yield Grade” value ([2]; component feeding 60 mg/hd/day) was 2.81* and the “Dressing % (using final body weight shrunk 4%)” value (from here on “Dressing %”) ([2]; component feeding 60 mg/hd/day) was 63.89* %. For the same compound, the “Hot Carcass Weight” value ([2]; component feeding 60 mg/hd/day) was 904* lb/head, the Kidney-Pelvic-Heart fat ([2]; component feeding 60 mg/hd/day) was 2.27% and the “Ribeye Area” value ([2]; component feeding 60 mg/hd/day) was 15.14* sq. inches. For the same compound, the “USDA Yield Grade” value ([2]; component feeding 60 mg/hd/day) was 2.19*, the “Marbling Score” value ([2]; component feeding 60 mg/hd/day) was 453* and the “Backfat Thickness” value ([2]; component feeding 75 mg/hd/day) was 0.48 inches. The “Calculated Yield Grade” value ([2]; component feeding 75 mg/hd/day) was 2.82*, the “Dressing %” value ([2]; component feeding 75 mg/hd/day) was 64.00* % and the “Hot Carcass Weight” value ([2]; component feeding 75 mg/hd/day) was 902* lb/head. For the same compound, the Kidney-Pelvic-Heart fat ([2]; component feeding 75 mg/hd/day) was 2.26%, the “Ribeye Area” value ([2]; component feeding 75 mg/hd/day) was 15.07* sq. inches and the “USDA Yield Grade” value ([2]; component feeding 75 mg/hd/day) was 2.19*. The “Marbling Score” value ([2]; component feeding 75 mg/hd/day) was 460*, the “Backfat Thickness” value ([2]; component feeding 90 mg/hd/day) was 0.49 inches and the “Calculated Yield Grade” value ([2]; component feeding 90 mg/hd/day) was 2.79*. The “Dressing %” value ([2]; component feeding 90 mg/hd/day) was 64.06* %, the “Hot Carcass Weight” value ([2]; component feeding 90 mg/hd/day) was 905* lb/head and the Kidney-Pelvic-Heart fat ([2]; component feeding 90 mg/hd/day) was 2.26%. For the same compound, the “Ribeye Area” value ([2]; component feeding 90 mg/hd/day) was 15.20* sq. inches, the “USDA Yield Grade” value ([2]; component feeding 90 mg/hd/day) was 2.18* and the “Marbling Score” value ([2]; component feeding 90 mg/hd/day) was 456*. For the same compound, the “Backfat Thickness” value ([2]; continuous 6.8 g/ton) was 0.49 inches, the “Calculated Yield Grade” value ([2]; continuous 6.8 g/ton) was 2.83* and the “Dressing %” value ([2]; continuous 6.8 g/ton) was 64.08* %. For the same compound, the “Hot Carcass Weight” value ([2]; continuous 6.8 g/ton) was 908* lb/head, the Kidney-Pelvic-Heart fat ([2]; continuous 6.8 g/ton) was 2.27% and the “Ribeye Area” value ([2]; continuous 6.8 g/ton) was 15.14* sq. inches. The “USDA Yield Grade” value ([2]; continuous 6.8 g/ton) was 2.19* and the “Marbling Score” value ([2]; continuous 6.8 g/ton) was 457*.

From patent publication US20160022694A1, “A Method of Improving the Efficiency of Beef Production from Bovine Animals” (INTERVET INTERNATIONAL B.V., priority 2013, published 2016)
